Assay results: patent publication US20160130278A1 (TAISHO PHARMACEUTICAL CO., LTD, priority 2013, published 2016)

Molecular target: T1, human type 1 glycine transporter (GlyT1) (Homo sapiens, UniProt P48067)
T1 construct: T98G cells (glioma cells) expressing human type 1 glycine transporter (GlyT1) were used
T1 sequence (P48067 1-706): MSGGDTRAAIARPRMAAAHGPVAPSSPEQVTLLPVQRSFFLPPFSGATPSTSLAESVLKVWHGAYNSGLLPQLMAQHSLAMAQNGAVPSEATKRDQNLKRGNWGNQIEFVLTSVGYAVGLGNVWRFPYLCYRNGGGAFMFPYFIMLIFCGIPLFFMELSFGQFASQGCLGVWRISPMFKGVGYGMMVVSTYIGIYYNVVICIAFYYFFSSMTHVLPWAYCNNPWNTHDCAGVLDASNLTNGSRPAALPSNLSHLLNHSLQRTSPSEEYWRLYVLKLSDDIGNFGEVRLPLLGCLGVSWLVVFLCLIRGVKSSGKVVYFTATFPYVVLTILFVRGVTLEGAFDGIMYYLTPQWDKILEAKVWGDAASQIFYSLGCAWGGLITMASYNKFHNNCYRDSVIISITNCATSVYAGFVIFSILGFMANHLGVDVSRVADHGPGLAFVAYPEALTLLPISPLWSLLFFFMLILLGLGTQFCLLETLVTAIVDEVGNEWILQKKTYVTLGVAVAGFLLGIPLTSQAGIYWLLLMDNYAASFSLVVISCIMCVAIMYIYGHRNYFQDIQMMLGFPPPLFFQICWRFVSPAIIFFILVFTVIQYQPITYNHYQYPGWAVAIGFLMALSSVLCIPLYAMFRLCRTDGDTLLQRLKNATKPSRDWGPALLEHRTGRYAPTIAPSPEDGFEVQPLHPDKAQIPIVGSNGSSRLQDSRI
Assay: Glycine uptake inhibition experiment ([3H]glycine uptake)
Format: cell-based
Conditions: GlyT1
In short: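 T98G glioma cells expressing human GlyT1 were pretreated 10 min with compound in HEPES buffer pH 7.4 (0.2% BSA), then incubated with compound plus 250 nM final [3H]glycine for 15 min at room temperature. Intracellular radioactivity was counted after NaOH lysis; 10 μM ALX5407 defined non-specific uptake. IC50 came from 10^−9–10^−5 M curves.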

SMILES	IC50
O=C(NC(c1ccc(Cl)nc1)C1(O)CCC(F)(F)CC1)c1nccc(C(F)(F)F)c1Cl (single isomer, unassigned) [Compound 278, 3-chloro-N-[(6-chloropyridin-3-yl)(4,4-difluoro-1-hydroxycyclohexyl)methyl]-4-(trifluoromethyl)pyridine-2-carboxamide]	2700 nM
O=C(NC(c1ccccc1F)[C@]1(O)CC[C@H](F)CC1)c1nccc(C(F)(F)F)c1Cl (single isomer, unassigned) [Compound 240, 3-chloro-N-[(trans-4-fluoro-1-hydroxycyclohexyl)(2-fluorophenyl)methyl]-4-(trifluoromethyl)pyridine-2-carboxamide]	230 nM
CCn1cc(-c2cccc(C(NC(=O)c3c(Cl)cc(Cl)cc3Cl)C3(O)CCC(F)(F)CC3)c2)cn1 (stereo not shown) [Compound 176, 2,4,6-trichloro-N-{(4,4-difluoro-1-hydroxycyclohexyl)[3-(1-ethyl-1H-pyrazol-4-yl)phenyl]methyl}benzamide]	1000 nM
CS(=O)(=O)c1ccc(Cl)c(C(=O)NC(c2cccc(F)c2Cl)[C@]2(O)CC[C@@H](F)CC2)c1 (single isomer, unassigned) [Compound 296, 2-chloro-N-[(2-chloro-3-fluorophenyl)(cis-4-fluoro-1-hydroxycyclohexyl)methyl]-5-(methylsuflonyl)benzamide]	3500 nM
CCn1cc(-c2cccc(C(NC(=O)c3cc(C(F)(F)F)cnc3Cl)C3(O)CCC(F)(F)CC3)c2)cn1 (stereo not shown) [Compound 202, 2-chloro-N-{(4,4-difluoro-1-hydroxycyclohexyl)[3-(1-ethyl-1H-pyrazol-4-yl)phenyl]methyl}-5-(trifluoromethyl)pyridine-3-carboxamide]	900 nM
CCn1cc(-c2cccc(C(NC(=O)c3ccc(F)cc3C(F)(F)F)C3(O)CCC(F)(F)CC3)c2)cn1 (stereo not shown) [Compound 192, N-{(4,4-difluoro-1-hydroxycyclohexyl)[3-(1-ethyl-1H-pyraozl-4-yl)phenyl]methyl}-4-fluoro-2-(trifluoromethyl)benzamide]	340 nM
O=C(NC(c1cccc(F)c1Cl)[C@]1(O)CC[C@@H](F)CC1)c1ncc(Cl)cc1-n1nccn1 (single isomer, unassigned) [Compound 371, 5-chloro-N-[(2-chloro-3-fluorophenyl)(cis-4-fluoro-1-hydroxycyclohexyl)methyl]-3-(2H-1,2,3-triazol-2-yl)pyridine-2-carboxamide]	1600 nM
COc1ccc(Cl)c(C(=O)NC(c2cccc(F)c2Cl)[C@]2(O)CC[C@@H](F)CC2)c1 (single isomer, unassigned) [Compound 293, 2-chloro-N-[(2-chloro-3-fluorophenyl)(cis-4-fluoro-1-hydroxycyclohexyl)methyl]-5-methoxybenzamide]	450 nM
O=C(NC(c1cccc(Cl)c1F)C1(O)CCC(F)(F)CC1)c1nc(C(F)(F)F)ccc1Cl (single isomer, unassigned) [Compound 226, 3-chloro-N-[(3-chloro-2-fluorophenyl)(4,4-difluoro-1-hydroxycyclohexyl)methyl]-6-(trifluoromethyl)pyridine-2-carboxamide]	1300 nM
O=C(NC(c1cccc(-c2cccnc2)c1)C1(O)CCCCC1)c1nccc(C(F)(F)F)c1Cl (stereo not shown) [Compound 26, 3-chloro-N-{(hydroxycyclohexyl)[3-(pyridin-3-yl)phenyl]methyl}-4-(trifluoromethyl)pyridine-2-carboxamide]	80 nM
Cc1ccc(C(F)(F)F)c(C(=O)NC(c2cccc(F)c2Cl)[C@]2(O)CC[C@@H](F)CC2)n1 (single isomer, unassigned) [Compound 315, N-[(2-chloro-3-fluorophenyl)(cis-4-fluoro-1-hydroxycyclohexyl)methyl]-6-methyl-3-(trifluoromethyl)pyridine-2-carboxamide]	820 nM
CCn1cc(-c2cccc(C(NC(=O)c3c(Cl)ccc(C(F)(F)F)c3Cl)C3(O)CCC(F)(F)CC3)c2)cn1 (single isomer, unassigned) [Compound 222, 2,6-dichloro-N-{(4,4-difluoro-1-hydroxycyclohexyl)[3-(1-ethyl-1H-pyrazol-4-yl)phenyl]methyl}-3-(trifluoromethyl)benzamide]	190 nM

Continued, values first:

IC50	SMILES
82 nM	O=C(N[C@@H](c1cccc(Br)c1)C1(O)CCCC1)c1nccc(C(F)(F)F)c1Cl [Compound 33, N-[(S)-(3-bromophenyl)(1-hydroxycyclopentyl)methyl]-3-chloro-4-(trifluoromethyl)pyridine-2-carboxamide]
69 nM	O=C(NC(c1cccc(-c2cccnc2)c1)C1(O)CCCC1)c1nccc(C(F)(F)F)c1Cl (single isomer, unassigned) [Compound 25, 3-chloro-N-{(1-hydroxycylcopentyl)[3-(pyridin-3-yl)phenyl]methyl}-4-(trifluoromethyl)pyridine-2-carboxamide]
150 nM	COc1cccc(C(NC(=O)c2nccc(C(F)(F)F)c2Cl)C2(O)CCCC2)c1 (single isomer, unassigned) [Compound 57, 3-chloro-N-[(1-hydroxycyclopentyl)(3-methoxyphenyl)methyl]-4-(trifluoromethyl)pyridine-2-carboxamide]
1200 nM	COc1cccc(Cl)c1C(=O)NC(c1cccc(F)c1Cl)[C@]1(O)CC[C@@H](F)CC1 (single isomer, unassigned) [Compound 300, 2-chloro-N-[(2-chloro-3-fluorophenyl)(cis-4-fluoro-1-hydroxycyclohexyl)methyl]-6-methoxybenzamide]
5500 nM	O=C(NC(c1cccc(F)c1Cl)[C@]1(O)CC[C@@H](F)CC1)c1nccnc1Cl (single isomer, unassigned) [Compound 302, 3-chloro-N-[(2-chloro-3-fluorophenyl)(cis-4-fluoro-1-hydroxycyclohexyl)methyl]pyrazine-2-carboxamide]
3500 nM	CC(C)n1cc(-c2cccc(C(NC(=O)c3nccc(C(F)(F)F)c3Cl)C3(O)CCC(F)(F)CC3)c2)cn1 (single isomer, unassigned) [Compound 133, 3-chloro-N-[(4,4-difluoro-1-hydroxycyclohexyl){3-[1-(propan-2-yl)-1H-pyrazol-4-yl]phenyl}methyl]-4-(trifluoromethyl)pyridine-2-carboxamide]
330 nM	CS(=O)(=O)c1ccc(C(F)(F)F)cc1C(=O)NC(c1ccccc1Cl)C1(O)CCC(F)(F)CC1 (single isomer, unassigned) [Compound 395, N-[(2-chlorophenyl)(4,4-difluoro-1-hydroxycyclohexyl)methyl]-2-(methylsulfonyl)-5-(trifluoromethyl)benzamide]
3800 nM	CCn1cc(-c2cccc(C(NC(=O)c3nccc(C(F)(F)F)c3Cl)C3(O)CCC(F)(F)CC3)c2)cn1 (single isomer, unassigned) [Compound 91, 3-chloro-N-{(4,4-difluoro-1-hydroxycyclohexyl)[3-(1-ethyl-1H-pyrazol-4-yl)phenyl]methyl}-4-(trifluoromethyl)pyridine-2-carboxamide]
140 nM	O=C(NC(c1cc(Cl)ccn1)[C@]1(O)CC[C@@H](F)CC1)c1nccc(C(F)(F)F)c1Cl (single isomer, unassigned) [Compound 286, 3-chloro-N-[(4-chloropyridin-2-yl)(cis-4-fluoro-1-hydroxycyclohexyl)methyl]-4-(trifluoromethyl)pyridine-2-carboxamide]
210 nM	O=C(NC(c1cccc(F)c1F)C1(O)CCC(F)(F)CC1)c1ccnc(C(F)(F)F)c1Cl (single isomer, unassigned) [Compound 165, 3-chloro-N-[(4,4-difluoro-1-hydroxycyclohexyl)(2,3-difluorophenyl)methyl]-2-(trifluromethyl)pyridine-4-carboxamide]
240 nM	O=C(NC(c1cncc(Cl)c1)[C@]1(O)CC[C@@H](F)CC1)c1nccc(C(F)(F)F)c1Cl (single isomer, unassigned) [Compound 242, 3-chloro-N-[(5-chloropyridin-3-yl)(cis-4-fluoro-1-hydroxycyclohexyl)methyl]-4-(trifluoromethyl)pyridine-2-carboxamide]
890 nM	O=C(NC(c1cccnc1)[C@]1(O)CC[C@@H](F)CC1)c1nccc(C(F)(F)F)c1Cl (single isomer, unassigned) [Compound 265, 3-chloro-N-[(cis-4-fluoro-1-hydroxycyclohexyl)(pyridin-3-yl)methyl]-4-(trifluoromethyl)pyridine-2-carboxamide]
62 nM	O=C(NC(c1cccc(Cl)c1Cl)C1(O)CCC(F)(F)CC1)c1nccc(C(F)(F)F)c1Cl (single isomer, unassigned) [Compound 137, 3-chloro-N-[(2,3-dichlorophenyl)(4,4-difluoro-1-hydroxycyclohexyl)methyl]-4-(trifluoromethyl)pyridine-2-carboxamide]
